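Results reflect a 48-hour exposure of cells in 96-well plates to compound at five concentrations. Here, GI50 denotes the concentration required for 50% inhibition of growth. TGI marks complete inhibition of growth.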
Columns and labels:
Assay in all cases: inhibition of tumour cell growth, NCI panel, 48 h
HCT-15 colon = system: HCT-15 colon
CCRF-CEM leukemia = system: CCRF-CEM leukemia
HOP-62 NSCLC = system: HOP-62 NSCLC
MOLT-4 leukemia = system: MOLT-4 leukemia
KM12 colon = system: KM12 colon
DU-145 prostate = system: DU-145 prostate
HL-60(TB) leukemia = system: HL-60(TB) leukemia
BT-549 breast = system: BT-549 breast
HT29 colon = system: HT29 colon
COLO 205 colon = system: COLO 205 colon
SNB-19 CNS = system: SNB-19 CNS
UACC-257 melanoma = system: UACC-257 melanoma
MDA-MB-435 = system: MDA-MB-435
SK-MEL-2 melanoma = system: SK-MEL-2 melanoma
SW-620 colon = system: SW-620 colon
HCC-2998 colon = system: HCC-2998 colon
PC-3 prostate = system: PC-3 prostate
MCF7 breast = system: MCF7 breast

## O=C(CSc1nnc(-c2ccc(Cl)cc2)n1-c1ccccc1)Nc1ccc(Br)cc1
HCT-15 colon
  GI50: > 50 µM
  TGI: > 50 µM
CCRF-CEM leukemia
  GI50: > 50 µM
  TGI: > 50 µM
HOP-62 NSCLC
  GI50: 1.87 µM
  TGI: > 50 µM
MOLT-4 leukemia
  GI50: > 50 µM
  TGI: > 50 µM
KM12 colon
  GI50: > 50 µM
  TGI: > 50 µM
DU-145 prostate
  GI50: > 50 µM
  TGI: > 50 µM
HL-60(TB) leukemia
  GI50: > 50 µM
  TGI: > 50 µM
BT-549 breast
  GI50: > 50 µM
  TGI: > 50 µM
HT29 colon
  GI50: > 50 µM
  TGI: > 50 µM
COLO 205 colon
  GI50: > 50 µM
  TGI: > 50 µM
SNB-19 CNS
  GI50: 1.89 µM
  TGI: > 50 µM
UACC-257 melanoma
  GI50: > 50 µM
  TGI: > 50 µM
MDA-MB-435
  GI50: > 50 µM
  TGI: > 50 µM
SK-MEL-2 melanoma
  GI50: > 50 µM
  TGI: > 50 µM
SW-620 colon
  GI50: > 50 µM
  TGI: > 50 µM
HCC-2998 colon
  GI50: > 50 µM
  TGI: > 50 µM
PC-3 prostate
  GI50: > 50 µM
  TGI: > 50 µM
MCF7 breast
  GI50: > 50 µM
  TGI: > 50 µM

— PubChem BioAssay (NCI)
